Experimental findings from patent US10646527B2, “Method of using a Mangifera indica composition in the treatment of obesity” (Vidya Herbs, Inc., priority 2015, dated 2020) are described below.

Marks after values point to notes of the source that are not given here.

The subject of experiment [1] is high fat diet fed male Wistar rats. Description: Anti-obesity activity in high fat diet fed rats. The settings on record: Group III, Orlistat 30 mg/kg. It is filed as in vivo, rat. The procedure: Objective: The objective was to investigate the effect of the composition against high fat diet fed rats.
Animals: male Wistar rats (160 to 200 g); no. of animals: 36; housing: 3/cage, 12 hrs light/dark cycle; temperature: 25±2° c.
Model & composition of the diet: high fat diet in rats: 25% lard, 5% soybean oil; 5% starch; 65% normal commercial available rat feed
Groups: male Wistar rats were divided into six groups with six animals in each group.

The nature of experiment [2]: Hydrogen peroxide (H2O2) scavenging activity. It is filed as biochemical. The procedure:
Hydrogen peroxide scavenging activity of the composition was estimated in this study where initially, composition solutions were prepared at different concentrations in distilled water and the resultant solutions were mixed in 0.6 ml of 40 mM H2O2 solution prepared in phosphate buffer (0.1 M pH 7.4) and incubated for 10 min. The absorbance was measured at 230 nm against a blank solution containing H2O2. Similar procedure was repeated for the composition, mangiferin, and quercetin. The amount of hydrogen peroxide radical inhibited was calculated using the following equation. The result is expressed as % H2O2 radical scavenging activity.
[formula] [formula] where: Abs control—Absorbance of H2O2 radical Abs sample—Absorbance of sample extract/standard (the composition, mangiferin and quercetin) Result: […]

A short description of experiment [3]: Lipid peroxidation inhibitory assay (TBARS, egg yolk homogenate). The class given is biochemical. The settings on record: Sample Concentration: 100-500 μg/ml. The procedure:
A modified thiobarbituric acid reactive species (TBARS) assay (Ohkowa et al., 1979) is used to measure lipid peroxidation formed using egg yolk homogenate as lipid rich media (Ruberto et al., 2000).
Take 0.5 ml of egg homogenate (10% in distilled water) and 0.1 ml of test sample in the concentration range 100-500 μg/ml in a test tube and volume made up to 1 ml by adding distilled water. Finally add 0.05 ml ferrous sulphate (0.07M) to the above mixture and incubated for 30 min to induce the lipid peroxidation. Thereafter added 1.5 ml of 20% acetic acid (pH 3.5) and 1.5 ml of (0.8% in 1.1% SDS) TBA and 0.05 ml (20%) TCA then heated in boiling water bath for 60 min. After cooling 5 ml of butanol was added to all the test tubes and centrifuged at 3000 rpm for 10 min. Measured the absorbance of the organic upper layer at 532 nm. The percentage inhibition of lipid peroxidation was calculated from the formula,
[formula] where: Ab (cont)—is the absorbance of the control Ab (test sample)—is the absorbance of the test sample/standard

With `CCCCCCCCCCC[C@@H](C[C@@H]1OC(=O)[C@H]1CCCCCC)OC(=O)[C@H](CC(C)C)NC=O` [Orlistat], in experiment [1], the “Atherogenic Index” value was 1.39 ± 0.15^***b, the “BAT (brown adipose tissue)” value is reported as 0.28 ± 0.01^nsb, the “Difference in body weight gain” value is listed as 79.82 ± 2.58 ^b and the “Epididymal fat pad Left” value is recorded as 0.52 ± 0.03^nsb. Moreover, in experiment [1], the “Epididymal fat pad Right” value is reported as 0.55 ± 0.02^nsb and the Liver organ weight is listed as 2.8 ± 0.08***^b.

For `O=c1c(O)c(-c2ccc(O)c(O)c2)oc2cc(O)cc(O)c12` [Quercetin(Standard), Quercetin], the “% H2O2 radical scavenging activity” value in experiment [2] (10 μg/ml) was found to be 5.6%; in experiment [2] (20 μg/ml) it was 14.55%; in experiment [2] (30 μg/ml) it was 18.86%; in experiment [2] (40 μg/ml), 33.96%. Moreover, in experiment [3], the “Lipid peroxidation % inhibition” value is given as 53.44%.
